In one assay the target is T1, HER2 INS YVMA (Homo sapiens, UniProt P04626, INS775YVMA).
T1 construct: purchased DPF
Description: Lance Kinase Activity Assay, HER2 INS YVMA (Her2 Exon 20 INSYVMA Lance). It counts as biochemical. As to conditions: biochemical Lance assay. Put shortly:
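Kinase phosphorylates a ULight-labelled peptide substrate; Eu anti-phospho antibody gives TR-FRET (ex 340 nm, em 665/615 nm). Compounds in 1:3 serial dilution over 8 steps, reaction started with ATP, 1 h at room temperature, stopped with EDTA-containing detection mix for 1 h. IC50 from sigmoidal dose-response curves.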

The target of assay [1] is Her2 Exon 20 INSYVMA Ba/F3 (Homo sapiens, UniProt P04626, DUP772-775, cells depend on it). Description: Her2 Exon 20 INSYVMA Ba/F3 CellTiter-Glo. The format is cell-based. As to conditions: CellTiter-Glo, 72 h, read-out: Her2 Exon 20 INSYVMA Ba/F3 CTG IC50. Put shortly:
(§1)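 IC50 values, binned A (≤100 nM) through E (>10000 nM), come from luminescent ATP quantitation of viable mutant-driven Ba/F3 cells. Compound exposure lasted 72 h, starting 24 h post-seeding; DMSO and 10 μM staurosporine served as controls, Z′ ≥0.5 required.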

The target in assay [2] is EGFR Exon 20 INSNPH Ba/F3 (Homo sapiens, UniProt P00533, DUP771-773, cells depend on it). Description: EGFR Exon 20 INSNPH Ba/F3 CellTiter-Glo. It counts as cell-based. To be noted: CellTiter-Glo, 72 h, read-out: EGFR Exon 20 INSNPH Ba/F3 CTG IC50. In short, it runs like this: as §1
EGFR Exon 20 INSNPH Ba/F3, sequence (P00533 with tags, fused parts or gaps DUP771-773): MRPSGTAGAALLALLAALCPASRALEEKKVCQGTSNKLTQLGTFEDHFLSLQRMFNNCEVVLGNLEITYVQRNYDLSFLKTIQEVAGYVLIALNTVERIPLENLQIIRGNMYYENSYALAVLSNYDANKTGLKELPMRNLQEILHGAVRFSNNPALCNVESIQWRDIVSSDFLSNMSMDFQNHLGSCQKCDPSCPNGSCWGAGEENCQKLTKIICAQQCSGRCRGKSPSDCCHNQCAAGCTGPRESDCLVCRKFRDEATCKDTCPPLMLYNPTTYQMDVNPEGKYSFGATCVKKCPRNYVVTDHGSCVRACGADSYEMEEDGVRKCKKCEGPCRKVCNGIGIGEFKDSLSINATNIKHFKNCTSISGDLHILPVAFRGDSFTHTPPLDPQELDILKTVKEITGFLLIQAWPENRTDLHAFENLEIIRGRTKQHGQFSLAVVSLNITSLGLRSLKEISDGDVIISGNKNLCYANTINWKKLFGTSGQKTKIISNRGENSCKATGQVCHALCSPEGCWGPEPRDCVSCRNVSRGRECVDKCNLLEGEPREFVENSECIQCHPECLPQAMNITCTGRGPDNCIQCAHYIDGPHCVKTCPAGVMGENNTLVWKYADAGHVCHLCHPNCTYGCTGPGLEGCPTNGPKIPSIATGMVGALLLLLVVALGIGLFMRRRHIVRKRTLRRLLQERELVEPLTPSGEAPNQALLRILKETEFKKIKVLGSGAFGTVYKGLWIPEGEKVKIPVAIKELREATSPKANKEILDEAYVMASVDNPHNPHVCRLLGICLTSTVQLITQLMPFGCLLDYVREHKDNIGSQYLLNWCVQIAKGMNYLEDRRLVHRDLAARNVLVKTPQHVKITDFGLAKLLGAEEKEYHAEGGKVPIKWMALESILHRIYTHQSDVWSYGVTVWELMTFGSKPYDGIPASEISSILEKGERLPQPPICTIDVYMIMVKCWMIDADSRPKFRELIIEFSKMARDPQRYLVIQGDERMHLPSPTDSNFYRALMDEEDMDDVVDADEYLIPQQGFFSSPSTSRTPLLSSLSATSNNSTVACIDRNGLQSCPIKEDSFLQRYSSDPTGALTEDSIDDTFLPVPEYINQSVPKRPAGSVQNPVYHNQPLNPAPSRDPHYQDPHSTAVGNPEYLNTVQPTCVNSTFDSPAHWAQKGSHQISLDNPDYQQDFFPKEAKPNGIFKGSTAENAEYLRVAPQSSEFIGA
Background: Cellular ATP, detected with luciferase, serves as a proxy for viable cell number.

The next assay addresses EGFR T790ML858R (Homo sapiens, UniProt P00533, L858R/T790M). Description: EGFR T790ML858R Lance assay. The format is biochemical. On the procedure: (§2) Inhibition is indicated as […] [nM] (“−”=not measured). Compounds having an activity designated as “A” provided an IC50≤100 nM; compounds having an activity designated as “B” provided an 100 nM<IC50≤500 nM; compounds having an activity designated as “C” provided an 500 nM<IC50≤1000 nM; compounds having an activity designated as “D” provided an 1000 nM<IC50≤100000 nM; and compounds having an activity designated as “E” provided an IC50>10000 nM.

The next assay has as its target EGFR wt (Homo sapiens, UniProt P00533). Description: EGFR wt Lance assay. It counts as biochemical. On the procedure: as §2
The test system of a further assay is H1975. Description: H1975 CellTiter-Glo. It counts as cell-based. To be noted: Homo sapiens, NCI-H1975; 72 h compound incubation; read-out: H1975 CTG IC50. In short, it runs like this: (§3)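 Cells were seeded, left 24 h at 37° C. and 5% CO2, then exposed to compounds in DMSO at different concentrations for a further 72 h. Viability was read as ATP-dependent luminescence (CellTiter-Glo), and IC50 values were obtained from dose-response fits against DMSO and 10 μM Staurosporine controls.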

The next assay has as its system A431. Description: A431 CellTiter-Glo. The format is cell-based. To be noted: Homo sapiens, A-431; 72 h compound incubation; read-out: A431 CTG IC50. Put shortly: as §3

EGFR wt, sequence (P00533 25-1210): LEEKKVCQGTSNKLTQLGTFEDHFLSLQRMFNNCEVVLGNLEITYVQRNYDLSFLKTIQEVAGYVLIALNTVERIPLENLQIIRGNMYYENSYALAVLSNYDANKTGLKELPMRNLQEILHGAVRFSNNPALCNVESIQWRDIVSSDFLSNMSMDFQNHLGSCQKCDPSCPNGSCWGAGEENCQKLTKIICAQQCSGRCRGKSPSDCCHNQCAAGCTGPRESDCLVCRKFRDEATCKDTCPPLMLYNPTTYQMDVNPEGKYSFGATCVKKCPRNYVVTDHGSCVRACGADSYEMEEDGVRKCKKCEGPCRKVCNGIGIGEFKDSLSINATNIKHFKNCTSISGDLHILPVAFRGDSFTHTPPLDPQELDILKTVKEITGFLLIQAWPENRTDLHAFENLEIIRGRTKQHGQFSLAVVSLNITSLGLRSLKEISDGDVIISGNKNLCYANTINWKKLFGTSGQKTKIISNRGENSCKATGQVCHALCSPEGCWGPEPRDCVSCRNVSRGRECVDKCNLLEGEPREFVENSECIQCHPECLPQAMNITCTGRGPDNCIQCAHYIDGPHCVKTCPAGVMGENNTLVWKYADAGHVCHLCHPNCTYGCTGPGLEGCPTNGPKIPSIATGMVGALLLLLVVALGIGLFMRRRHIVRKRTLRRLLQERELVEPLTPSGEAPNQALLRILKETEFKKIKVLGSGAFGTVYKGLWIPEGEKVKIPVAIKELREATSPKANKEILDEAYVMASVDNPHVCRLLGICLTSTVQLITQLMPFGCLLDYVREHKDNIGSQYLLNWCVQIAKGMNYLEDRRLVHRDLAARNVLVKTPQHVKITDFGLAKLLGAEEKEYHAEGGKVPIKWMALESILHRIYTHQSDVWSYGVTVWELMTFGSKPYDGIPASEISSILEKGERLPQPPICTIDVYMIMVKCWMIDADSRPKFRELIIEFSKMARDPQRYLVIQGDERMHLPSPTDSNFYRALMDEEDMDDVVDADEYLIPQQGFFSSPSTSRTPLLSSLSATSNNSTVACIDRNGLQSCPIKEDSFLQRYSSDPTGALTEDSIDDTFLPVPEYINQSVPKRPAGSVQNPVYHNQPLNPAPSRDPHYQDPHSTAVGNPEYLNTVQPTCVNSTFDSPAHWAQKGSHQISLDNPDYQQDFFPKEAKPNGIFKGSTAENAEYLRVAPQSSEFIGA
Her2 Exon 20 INSYVMA Ba/F3, sequence (P04626 with tags, fused parts or gaps DUP772-775): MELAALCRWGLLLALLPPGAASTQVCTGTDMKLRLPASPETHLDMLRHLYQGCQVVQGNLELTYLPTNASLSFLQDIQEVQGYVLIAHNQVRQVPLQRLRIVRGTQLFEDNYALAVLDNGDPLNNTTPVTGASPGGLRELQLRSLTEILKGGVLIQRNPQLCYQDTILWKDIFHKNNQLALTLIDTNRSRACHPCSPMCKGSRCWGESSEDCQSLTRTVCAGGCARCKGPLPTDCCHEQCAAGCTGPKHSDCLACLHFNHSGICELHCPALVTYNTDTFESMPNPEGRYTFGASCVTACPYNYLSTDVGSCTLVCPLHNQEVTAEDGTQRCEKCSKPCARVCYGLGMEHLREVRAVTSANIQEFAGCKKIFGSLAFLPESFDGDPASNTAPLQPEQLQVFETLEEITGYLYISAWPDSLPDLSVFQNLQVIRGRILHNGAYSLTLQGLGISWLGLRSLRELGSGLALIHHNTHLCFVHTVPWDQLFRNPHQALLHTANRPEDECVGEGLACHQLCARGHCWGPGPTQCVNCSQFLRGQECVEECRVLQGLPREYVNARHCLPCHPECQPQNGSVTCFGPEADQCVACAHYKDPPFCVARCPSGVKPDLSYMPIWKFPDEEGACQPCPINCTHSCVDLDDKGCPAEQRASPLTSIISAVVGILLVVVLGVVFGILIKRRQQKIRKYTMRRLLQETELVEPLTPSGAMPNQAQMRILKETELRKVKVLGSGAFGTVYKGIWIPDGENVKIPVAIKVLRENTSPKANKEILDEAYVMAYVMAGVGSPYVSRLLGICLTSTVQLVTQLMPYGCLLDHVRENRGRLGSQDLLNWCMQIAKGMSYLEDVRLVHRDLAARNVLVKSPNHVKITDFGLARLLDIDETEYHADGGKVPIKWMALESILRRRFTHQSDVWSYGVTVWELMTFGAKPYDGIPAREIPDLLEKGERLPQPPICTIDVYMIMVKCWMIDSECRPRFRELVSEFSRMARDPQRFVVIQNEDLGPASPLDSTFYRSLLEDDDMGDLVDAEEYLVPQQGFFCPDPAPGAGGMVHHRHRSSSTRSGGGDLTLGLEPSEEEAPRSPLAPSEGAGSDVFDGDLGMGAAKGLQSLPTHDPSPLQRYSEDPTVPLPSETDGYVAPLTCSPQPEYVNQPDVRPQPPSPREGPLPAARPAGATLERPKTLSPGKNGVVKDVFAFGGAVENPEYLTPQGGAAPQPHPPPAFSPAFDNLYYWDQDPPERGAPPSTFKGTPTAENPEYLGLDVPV
T1 sequence (P04626 with tags, fused parts or gaps INS775YVMA): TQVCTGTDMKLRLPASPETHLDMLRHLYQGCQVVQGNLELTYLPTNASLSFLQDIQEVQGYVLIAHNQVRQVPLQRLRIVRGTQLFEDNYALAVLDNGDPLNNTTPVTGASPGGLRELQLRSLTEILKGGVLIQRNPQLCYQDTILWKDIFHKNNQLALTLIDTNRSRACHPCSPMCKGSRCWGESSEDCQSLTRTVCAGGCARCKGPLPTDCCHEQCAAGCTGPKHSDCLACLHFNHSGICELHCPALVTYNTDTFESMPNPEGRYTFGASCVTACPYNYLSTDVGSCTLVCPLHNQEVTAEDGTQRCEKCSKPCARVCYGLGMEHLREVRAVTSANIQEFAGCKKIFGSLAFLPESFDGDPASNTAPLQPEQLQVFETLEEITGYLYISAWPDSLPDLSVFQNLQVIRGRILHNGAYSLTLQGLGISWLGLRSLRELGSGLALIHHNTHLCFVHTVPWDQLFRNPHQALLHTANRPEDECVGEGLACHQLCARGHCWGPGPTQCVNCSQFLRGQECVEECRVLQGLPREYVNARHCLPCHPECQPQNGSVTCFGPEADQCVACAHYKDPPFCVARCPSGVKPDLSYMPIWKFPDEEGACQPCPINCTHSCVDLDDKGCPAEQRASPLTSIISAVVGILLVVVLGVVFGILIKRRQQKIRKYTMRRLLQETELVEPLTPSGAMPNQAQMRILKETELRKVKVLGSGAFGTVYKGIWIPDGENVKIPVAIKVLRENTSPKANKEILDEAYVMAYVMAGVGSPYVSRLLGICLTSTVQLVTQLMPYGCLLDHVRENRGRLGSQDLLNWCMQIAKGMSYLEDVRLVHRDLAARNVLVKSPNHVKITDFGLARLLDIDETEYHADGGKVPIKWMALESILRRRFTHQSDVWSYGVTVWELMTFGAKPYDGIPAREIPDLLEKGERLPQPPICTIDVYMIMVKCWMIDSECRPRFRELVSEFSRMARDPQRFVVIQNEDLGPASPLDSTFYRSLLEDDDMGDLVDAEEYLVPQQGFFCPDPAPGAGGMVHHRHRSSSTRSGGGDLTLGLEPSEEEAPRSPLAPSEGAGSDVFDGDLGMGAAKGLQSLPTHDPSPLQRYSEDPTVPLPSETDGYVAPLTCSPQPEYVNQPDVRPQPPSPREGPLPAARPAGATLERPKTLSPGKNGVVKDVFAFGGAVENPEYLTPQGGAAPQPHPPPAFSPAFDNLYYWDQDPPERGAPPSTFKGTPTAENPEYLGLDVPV

As to `C=CC(=O)Nc1cc(-c2c(-c3cnc(N4CCOCC4)nc3)[nH]c3ncc(C(=O)OC(C)C)cc23)ccc1C` [Example 173, isopropyl 3-(3-acrylamido-4-methylphenyl)-2-(2-morpholinopyrimidin-5-yl)-1H-pyrrolo[2,3-b]pyridine-5-carboxylate], the IC50 was above 10 µM on HER2 INS YVMA; 1 to 100 µM against EGFR T790ML858R; 0.5 to 1 µM on EGFR wt; 1 to 100 µM with H1975; 1 to 100 µM with A431. In addition, the GI50 in assay [1] and in assay [2] was 1 to 10 µM each time.
Turning to `C=CC(=O)N1CCOc2ccc(-c3c(-c4ccc(OCCN5CCCC5)cc4)[nH]c4nccc(Cl)c34)cc21` [Example 101, 1-(6-(4-chloro-2-(4-(2-(pyrrolidin-1-yl)ethoxy)phenyl)-1H-pyrrolo[2,3-b]pyridin-3-yl)-2H-benzo[b][1,4]oxazin-4(3H)-yl)prop-2-en-1-one], the IC50 is at most 0.1 µM against HER2 INS YVMA; at most 0.1 µM at EGFR T790ML858R; at most 0.1 µM on EGFR wt; 0.1 to 0.5 µM in the assay with H1975; 1 to 100 µM in the assay with A431. Further, the GI50 in assay [1] and in assay [2] was 0.1 to 0.5 µM in each case.
Turning to `C=CC(=O)Nc1cc(-c2c(-c3cccc(N4CCN(C(C)=O)CC4)c3)[nH]c3ncc(C(=O)OC(C)C)cc23)ccc1C` [Example 185, isopropyl 2-(3-(4-acetylpiperazin-1-yl)phenyl)-3-(3-acrylamido-4-methylphenyl)-1H-pyrrolo[2,3-b]pyridine-5-carboxylate], the IC50 against HER2 INS YVMA was 1 to 10 µM; against EGFR T790ML858R it was 0.5 to 1 µM; against EGFR wt, at most 0.1 µM; with H1975, 1 to 100 µM; in the assay with A431, above 10 µM. Also, the GI50 in assay [1] and in assay [2] was 1 to 10 µM throughout.
With `C=CC(=O)Nc1cc(-c2c(-c3ccc(N4CCN(C)CC4)cc3)[nH]c3ncc(C(=O)NCC4CCN(C)CC4)cc23)ccc1C` [Example 129, 3-(3-acrylamido-4-methylphenyl)-2-(4-(4-methylpiperazin-1-yl)phenyl)-N-((1-methylpiperidin-4-yl)methyl)-1H-pyrrolo[2,3-b]pyridine-5-carboxamide], the IC50 was 0.5 to 1 µM against HER2 INS YVMA; 0.1 to 0.5 µM on EGFR T790ML858R; 0.1 to 0.5 µM on EGFR wt; above 10 µM with H1975; above 10 µM with A431. The GI50 in assay [1] and in assay [2] was above 10 µM each time.
Regarding `C=CC(=O)Nc1cc(-c2c(-c3ccc(N4CCN(S(=O)(=O)CC)CC4)cc3)[nH]c3ncc(C(=O)OC(C)C)cc23)ccc1C` [Example 184, isopropyl 3-(3-acrylamido-4-methylphenyl)-2-(4-(4-(ethylsulfonyl)piperazin-1-yl)phenyl)-1H-pyrrolo[2,3-b]pyridine-5-carboxylate], the concentration for half-maximal inhibition (IC50) against HER2 INS YVMA was 0.5 to 1 µM; against EGFR T790ML858R it was 0.1 to 0.5 µM; at EGFR wt, at most 0.1 µM; with H1975, 1 to 100 µM; in the assay on A431, above 10 µM. In addition, the GI50 in assay [1] and in assay [2] was 1 to 10 µM in each case.
As for `C=CC(=O)Nc1cc(-c2c(-c3ccc(N4CCN(C)CC4)cc3)[nH]c3ncc(C(=O)OC4CCC4)cc23)ccc1C` [Example 136, cyclobutyl 3-(3-acrylamido-4-methylphenyl)-2-(4-(4-methylpiperazin-1-yl)phenyl)-1H-pyrrolo[2,3-b]pyridine-5-carboxylate], the IC50 against HER2 INS YVMA was at most 0.1 µM; on EGFR T790ML858R it was at most 0.1 µM; on EGFR wt, at most 0.1 µM; in the assay with H1975, 0.1 to 0.5 µM; in the assay on A431 it was 1 to 100 µM. In addition, the GI50 in assay [1] and in assay [2] was 0.1 to 0.5 µM throughout.

One may read the IC50 as the concentration that inhibits the measured activity by half.
